Legend:
[1] = tested on: bovine adrenal 3β-hydroxy-Δ^5 -steroid dehydrogenase/3-keto-Δ^5 -steroid isomerase (3BHSD); details: literature (Tan; Brandt and Levy); cited from earlier work
[2] = tested on: porcine granulosa cell 3β-hydroxy-Δ^5 -steroid dehydrogenase/3-keto-Δ^5 -steroid isomerase (3BHSD); details: literature (Tan; Brandt and Levy); cited from earlier work
[3] = literature (McConnell; Rasmusson); cited from earlier work
[4] = target: T1, human type 1 5α-reductase (Homo sapiens, UniProt P18405); assay: Inhibition of human type 1 5α-reductase (conversion of testosterone to DHT, microsomes of baculovirus infected SF9 cells); type: biochemical; details: pH 7.0, 100 nM testosterone, 10 min preincubation, 10-120 min; read-out: IC50 Human Type 1 5AR
T1 construct: made in house; host or cells: recombinant baculovirus infected SF9 cells (microsomes)
T1 sequence (P18405 1-259): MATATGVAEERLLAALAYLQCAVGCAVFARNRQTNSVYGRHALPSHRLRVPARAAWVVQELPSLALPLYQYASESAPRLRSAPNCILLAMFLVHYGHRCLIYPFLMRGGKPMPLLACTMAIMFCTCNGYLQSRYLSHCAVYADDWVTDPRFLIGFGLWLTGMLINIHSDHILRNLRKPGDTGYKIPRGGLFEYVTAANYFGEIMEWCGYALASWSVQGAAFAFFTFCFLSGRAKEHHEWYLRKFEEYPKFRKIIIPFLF
Protocol: (§1) Enzyme activities may be determined using microsomes derived from: 1) prostate tissue from benign prostatic hyperplasia (BPH) patients; 2) recombinant baculovirus infected SF9 cells that express human type 1 5α-reductase; or 3) recombinant baculovirus infected SF9 cells that express human type 2 5α-reductase. Microsomes were prepared by homogenization of the tissue or cells, followed by differential centrifugation of the homogenate. Microsome extracts were incubated with varying concentrations of [1,2,6,7-^3 H]-testosterone, 1 mM NADPH, and varying amounts of the compounds of formula (I,) i.e. a test compound, in buffer containing a NADPH regenerating system capable of maintaining NADPH concentrations for a period of time within the range 0.5-240 minutes. Corresponding incubations were carried out with no test compound as a control study.
(§2) For type 1 IC50 measurements, assay components except testosterone were preincubated for 10 minutes at pH 7.0, and following the addition of 100 nM testosterone the assays were allowed to proceed for 10-120 minutes. For type 2 IC50 measurements, assay components except testosterone were preincubated for 20 minutes at pH 6.0, and following the addition of 8 nM testosterone the assays were allowed to proceed for 20-40 minutes. […]

Human Adrenal 3BHSD = target: T2, Human Adrenal 3BHSD (Homo sapiens, UniProt P26439); assay: Inhibition of human adrenal 3β-hydroxy-Δ^5-steroid dehydrogenase/3-keto-Δ^5-steroid isomerase (conversion of DHEA to androstenedione, human adrenal microsomes); type: biochemical; details: pH 7.5, DHEA substrate, 1 mM NAD^+, 1 to 60 minutes
T2 construct: microsomes derived from human adrenal tissues; from tissue; host or cells: human adrenal tissue (microsomes)
T2 sequence (P26439 1-372): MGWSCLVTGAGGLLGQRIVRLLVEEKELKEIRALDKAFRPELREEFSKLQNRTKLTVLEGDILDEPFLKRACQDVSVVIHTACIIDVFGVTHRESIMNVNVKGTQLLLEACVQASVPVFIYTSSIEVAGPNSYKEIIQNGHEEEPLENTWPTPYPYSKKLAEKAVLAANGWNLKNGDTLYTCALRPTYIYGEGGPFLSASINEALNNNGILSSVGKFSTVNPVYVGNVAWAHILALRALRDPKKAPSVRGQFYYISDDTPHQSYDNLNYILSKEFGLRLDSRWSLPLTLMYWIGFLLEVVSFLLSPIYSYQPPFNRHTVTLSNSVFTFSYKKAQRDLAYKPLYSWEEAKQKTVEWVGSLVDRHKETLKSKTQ
Protocol: Enzyme activities are measured using microsomes derived from human adrenal tissues. Microsomes were prepared by homogenization of the tissue followed by differential centrifugation of the homogenate. Microsome extracts were incubated with varying concentrations of dehydroepiandrosterone (DHEA), 1 mM NAD^+, and varying amounts of the compounds of Formula (I), i.e. a test compound, in pH 7.5 buffer for a period of time within the range of 1 to 60 minutes. Corresponding incubations were carried out with no test compound as a control study. The percentage of conversion of DHEA to androstenedione in the presence of test compounds compared to the corresponding conversion in the control study was estimated using HPLC with radiochemical detection.

[5] = target: T3, human type 2 5α-reductase (Homo sapiens, UniProt P31213); assay: Inhibition of human type 2 5α-reductase (conversion of testosterone to DHT, microsomes); type: biochemical; details: pH 6.0, 8 nM testosterone, 20 min preincubation, 20-40 min; read-out: IC50 Human Type 2 5AR
T3 construct: made in house; host or cells: recombinant baculovirus infected SF9 cells (microsomes); prostate tissue of BPH patients is printed as an alternative
T3 sequence (P31213 1-254): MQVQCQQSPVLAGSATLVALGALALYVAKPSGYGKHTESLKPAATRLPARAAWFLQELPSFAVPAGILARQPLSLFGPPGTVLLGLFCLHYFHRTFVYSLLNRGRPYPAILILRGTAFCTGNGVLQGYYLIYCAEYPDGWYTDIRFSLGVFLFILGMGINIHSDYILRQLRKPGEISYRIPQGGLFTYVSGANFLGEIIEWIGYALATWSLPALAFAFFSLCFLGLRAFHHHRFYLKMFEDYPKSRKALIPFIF
Protocol: as §1, §2

Row | Ki (Human Adrenal 3BHSD) | SMILES | also measured
1 |  | CCN(CC)C(=O)[C@H]1CC[C@H]2[C@@H]3CC[C@H]4N(C)C(=O)CC[C@]4(C)[C@H]3CC[C@]12C [Compound 4-MA] | inhibition of bovine adrenal 3BHSD [1]: potent inhibition; inhibition of porcine granulosa cell 3BHSD [2]: potent inhibition; hepatotoxicity [3]: hepatotoxicity
2 | 10 to 1000 nM | C[C@]12C=CC(=O)N[C@@H]1CC[C@@H]1[C@@H]2CC[C@]2(C)[C@@H](C(=O)NC3(c4ccc5c(c4)OCO5)CCCCC3)CC[C@@H]12 [Compound 12, 17β-N-1-(3,4-Methylenedioxyphenyl)cyclohexylcarbamoyl-4-aza-5α-androst-1-en-3-one] | IC50 [4]: 10 to 1000 nM
3 |  | CC(C)(C)c1ccc(C(F)(F)F)cc1NC(=O)[C@H]1CC[C@H]2[C@@H]3CC[C@H]4NC(=O)C=C[C@]4(C)[C@H]3CC[C@]12C [Compound 24, 17β-N-(2-t-Butyl-5-trifluoromethyl)phenylcarbamoyl-4-aza-5α-androst-1-en-3-one] | IC50 [5]: 1 to 10 nM
4 | 10 to 1000 nM | CN1C(=O)CC[C@]2(C)[C@H]3CC[C@]4(C)[C@@H](C(=O)Nc5cc(C(C)(C)C)ccc5C(C)(C)C)CC[C@H]4[C@@H]3CC[C@@H]12 [Compound 29, 17β-N-(2,5-Di-t-butyl)phenylcarbamoyl-4-methyl-4-aza-5α-androstan-3-one] | 
5 | 10 to 1000 nM | CN1C(=O)CC[C@]2(C)[C@H]3CC[C@]4(C)[C@@H](C(=O)NC5(c6ccc(Cl)cc6)CCCC5)CC[C@H]4[C@@H]3CC[C@@H]12 [Compound 2, 17β-N-1-(4-Chlorophenyl)cyclopentylcarbamoyl-4-methyl-4-aza-5α-androstan-3-one] | 
6 | 10 to 1000 nM | CN1C(=O)CC[C@]2(C)[C@H]3CC[C@]4(C)[C@@H](C(=O)Nc5cc(C(F)(F)F)ccc5C(F)(F)F)CC[C@H]4[C@@H]3CC[C@@H]12 [Compound 23, 17β-N-(2,5-bis(Trifluoromethyl))phenylcarbamoyl-4-methyl-4-aza-5α-androstan-3-one] | 
7 | 10 to 1000 nM | CC(C)(C)c1ccc(C(C)(C)C)c(NC(=O)[C@H]2CC[C@H]3[C@@H]4CC[C@H]5NC(=O)C=C[C@]5(C)[C@H]4CC[C@]23C)c1 [Compound 27, 17β-N-(2,5-Di-t-butyl)phenylcarbamoyl-4-aza-5α-androst-1-en-3-one] | 
8 | 10 to 1000 nM | CN1C(=O)CC[C@]2(C)[C@H]3CC[C@]4(C)[C@@H](C(=O)Nc5cc(C(F)(F)F)ccc5C(C)(C)C)CC[C@H]4[C@@H]3CC[C@@H]12 [Compound 26, 17β-N-(2-t-Butyl-5-trifluoromethyl)phenylcarbamoyl-4-methyl-4-aza-5α-androstan-3-one] | 
